The text below walks through data of patent US11478445B2, “Method for treating acute myeloid leukemia” (Bionomics Limited, priority 2017, dated 2022).

“Also recorded” adds a separate entry of the source.

Data set [1] has as its system AML cell lines. Put plainly: Cytotoxicity (CellTox Green) and viability/proliferation (CellTiter-Blue) assays. The class given is cell-based. The method, then:
The cell lines were plated in 96-well plates (black with clear flat bottom, Costar, 3603) at 2×10^4 cells/well in 50 uL of respective media, containing 0.1% DMSO and CellTox Green reagent (Promega, G8742) at a final dilution of 1/500. Cells were plated in triplicate wells for each dose being tested. EX 1 was reconstituted immediately prior to use at 10 mM in DMSO. The drug was prepared 2× concentrated in media containing 0.1% DMSO and 50 uL added to respective wells. Fluorescence (485-500 nmEx/520-530 nmEm) was measured at 24 h and 48 h with a FLOUstar OPTIMA plate reader (BMG Labtech). After the cytotoxicity measurement at 48 h, 20 μL of CellTiter-Blue reagent (Promega, G8080) was added to each well and the plate incubated for 1 h at 37° C. before fluorescence (560Ex/590Em) was measured with a FLOUstar OPTIMA plate reader (BMG Labtech).
The first experiment was performed with HL60 and MOLM13 cell lines. Cells were expanded and when numbers were adequate (and viability higher than 90%) they were plated in 96-well plates at 2×10^4 cells/well in 50 uL of their respective media, containing 0.1% DMSO and CellTox Green reagent. Doses tested ranged from 1 μM followed by serial 1/10 dilutions until 10^−5 nM EX 1, or vehicle only. Plates were cultured and fluorescence (indicating cytotoxicity) was measured at 24 h and 48 h. After the cytotoxicity was read at 48 h, CellTiter-Blue reagent was added to each well. The readout of this assay is based on the metabolic activity of cells and it is used as surrogate marker for proliferation and/or cell viability.
The next experiment was performed with the cell lines ME1, OCI-AML3, MV4; 11 and KG1 following the same protocol as above. From the results from the previous experiment it was observed that the non-linear curve fit was very steep between 1 nM and 0.1 nM (FIGS. 1A and B); thus, for this and the subsequent experiments the drug doses were adjusted to: […], 10 nM, 1 nM, 0.75 nM, 0.5 nM, 0.25 nM, 0.1 nM, 0.01 nM and 0.001 nM. […] Cytotoxicity and proliferation (metabolic assay) were measured as above. […]

The test system of data set [2] is AML cell lines. Kind of data set: Total ROS assay (CM-H2DCFDA, flow cytometry). The class given is cell-based. The method, then:
1.25×10^5 cells were harvested into 5 mL tubes and washed with PBS. […] All tubes were incubated at 37° C. for 20 min and then cells washed 3 times with PBS. Cells were resuspended in 300 μL PBS and analysed on an LSRFortessa (BD Biosciences) flow cytometer. Results were analysed with FCS Express 4 Flow Research Edition software (De Novo Software).
(§1) For that, cells were plated at 10^6 cells/mL and treated with vehicle (DMSO) alone or a range of doses of EX 1 (0.1 nM, 1 nM, 10 nM and 100 nM) for 6 h, 8 h and 24 h. Cells were harvested for detection of ROS and superoxide anion (O2^·−) levels at 6 h and 24 h, for protein extraction at 8 h and 24 h, and for cell cycle analysis at 24 h.
(§2) Total ROS levels were measured by flow cytometry using the fluorogenic dye CM-H2DCFDA at a final concentration of 5 μM. Mitochondria superoxide anion (O2^·−) levels were measured by flow cytometry using MitoSox, also at a final concentration of 5 μM.

For data set [3], the system named is AML cell lines. Kind of data set: Mitochondria O2.- assay (MitoSox, flow cytometry). Type of data set: cell-based. The method, then: 1.25×10^5 cells were harvested into 5 mL tubes and washed with PBS. Cell pellets were resuspended in 180 μL of PBS and 20 μL of freshly prepared 5 mM MitoSox (Molecular Probes, M36008) solution added to each tube. All tubes were incubated at 37° C. for 20 min and then cells washed 3 times with PBS. Cells were resuspended in 300 μL PBS and analysed on an LSRFortessa (BD Biosciences) flow cytometer. Results were analysed with FCS Express 4 Flow Research Edition software (De Novo Software).
as §1, §2

Data set [4] concerns AML cell lines. Kind of data set: Cell cycle assay (PI staining). The class given is cell-based. The method, then:
2×10^5 cells were harvested into 5 mL tubes and washed 3 times with PBS. Cell pellets were resuspended in 300 μL of cold PBS while vortexing. Next, cells were permeabilised with 700 μL of cold (−20° C.) 100% ethanol added dropwise while vortexing at slow speed. Cell suspensions were incubated on ice for 30 min, centrifuged at 300 g for 10 min and cell pellets resuspended in 100 μL PI solution (0.1% Triton X-100, 100 μg/mL DNAse-free RNAse A-Sigma, and 40 µg/mL PI in PBS). Cell suspensions were incubated at 37° C. for 30 min in the dark. 200 μL of PBS was added to each tube before analysis on an LSRFortessa (BD Biosciences) flow cytometer. Results were analysed with FCS Express 4 Flow Research Edition software (De Novo Software).
as §1
Therefore, cell cycle analysis was performed by PI staining in the cell lines after 24 h of treatment with a range of doses of EX 1, as described above.

The subject of data set [5] is chronic lymphocytic leukaemia (CLL) cells. The note with it: Bates et al. 2016; cited from earlier work.

Regarding `COc1cc(C(=O)c2c(C)oc3c(O)c(OC)ccc23)cc(OC)c1OC` [EX 1, 2-Methyl-7-hydroxy-3-(3,4,5-trimethoxybenzoyl)-6-methoxybenzofuran], the “cytotoxicity and CellTiter response” value in data set [1] (less sensitive cell lines ME1, OCI-AML3 and KG1) was “showed a lower cytotoxicity response”. Besides, the “cytotoxicity and inhibitory proliferation response” value in data set [1] (more sensitive cell lines HL60, MOLM13 and MV4;11) is “reached the highest cytotoxicity and showed the largest inhibitory proliferation response”. Also, in data set [1] (range over six AML cell lines (MV4;11, MOLM13, HL60, KG1, ME1, OCI-AML3), 48 h, FIGS. 1A and B, read-out: IC50 doses (cytotoxicity and viability)), the IC50 is 200 to 1300 pM. The “total ROS levels” value in data set [2] (OCI-AML3, 24 h) was “dose response reduction in total ROS”; in data set [2] (the other cell lines (not OCI-AML3), 6 h and 24 h) it was “none of the other cell lines showed any changes in total ROS levels”. Further, the “mitochondria O2.- levels” value in data set [3] (HL60 and ME1, 6 h) is “showed a decrease in mitochondria O2^·− levels”; in data set [3] (KG1) it was “did not respond to the drug treatment with any detectable changes”; in data set [3] (ME1, 24 h), “even greater effect observed at 24 h”; in data set [3] (MV4;11 and MOLM13, 24 h), “increased mitochondria O2^·− levels observed at 24 h only”; in data set [3] (OCI-AML3, 6 h) it was “slight decrease”; in data set [3] (OCI-AML3, 24 h), “appeared to have increased O2^·− levels”. For the same molecule, the “cell cycle distribution (G2/M)” value in data set [4] (HL60, KG1, OCI-AML3 and ME1, 24 h) was “G2/M cell cycle arrest”. In addition, in data set [4] (KG1 and HL60, 24 h), the sub-G0 cell population entry is given as “marked increases in the sub-G0 cell population; also recorded: increase in sub-G0 population starting at treatment with 10 nM”. Moreover, the “percentage of cells in G2/M and G1” value in data set [4] (MV4;11 and MOLM13, 24 h) is listed as “dose-dependent reduction”. For the same molecule, the “sub-G0 population (apoptosis)” value in data set [4] (MV4;11 and MOLM13, 24 h) is recorded as “underwent apoptosis as evidenced by the increase in sub-G0 population”. Further, the “cell cycle distribution (sub-G0, G2/M)” value in data set [4] (MV4;11 and MOLM13, 24 h, 10 nM) is “marked apoptosis induction (sub-G0 gate) and G2/M reduction”. In addition, the “apoptosis via P-JNK and Noxa” value in data set [5] is on record as “induce apoptosis”.
